The values that follow come from patent publication US9125913B2, “Bcl-2-selective apoptosis-inducing agents for the treatment of cancer and immune diseases” (AbbVie Inc., priority 2008, dated 2015).

In the assay the test system is GST-Bcl-2. Put plainly: TR-FRET binding assay, Bcl-2. The settings on record: TR-FRET Ki values. The gist of the method:
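Compounds serially diluted in DMSO from 50 μM (2× starting concentration, 10% DMSO), mixed with GST-tagged protein, F-Bak peptide probe and Tb-labeled antibody, incubated 3 h at room temperature.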
In general terms: In TR-FRET formats the signal depends on donor and acceptor labels being close together.
Turning to `CC1(C)CCC(CN2CCN(c3ccc(C(=O)NS(=O)(=O)c4ccc(NCC5CCOCC5)c([N+](=O)[O-])c4)c(Oc4cccc5[nH]ncc45)c3)CC2)=C(c2ccc(Cl)cc2)C1` [EXAMPLE 400, 4-(4-{[2-(4-chlorophenyl)-4,4-dimethylcyclohex-1-en-1-yl]methyl}piperazin-1-yl)-2-(1H-indazol-4-yloxy)-N-({3-nitro-4-[(tetrahydro-2H-pyran-4-ylmethyl)amino]phenyl}sulfonyl)benzamide], the “Binding selectivity ratio (Bcl-XL Ki/Bcl-2 Ki)” value (“Binding selectivity ratio” for short) is on record as more than 3643.8.

As to `CC1(C)CCC(CN2CCN(c3ccc(C(=O)NS(=O)(=O)c4ccc(NC5CCN(C6CCOCC6)CC5)c([N+](=O)[O-])c4)c(Oc4cccc5[nH]ncc45)c3)CC2)=C(c2ccc(Cl)cc2)C1` [EXAMPLE 401, 4-(4-{[2-(4-chlorophenyl)-4,4-dimethylcyclohex-1-en-1-yl]methyl}piperazin-1-yl)-2-(1H-indazol-4-yloxy)-N-({3-nitro-4-[(1-tetrahydro-2H-pyran-4-ylpiperidin-4-yl)amino]phenyl}sulfonyl)benzamide], the “Binding selectivity ratio” value is more than 162.14.

With `CC1(C)CCC(CN2CCN(c3ccc(C(=O)NS(=O)(=O)c4ccc(N[C@H]5CC[C@H](N6CCOCC6)CC5)c([N+](=O)[O-])c4)c(Oc4cccc5[nH]ncc45)c3)CC2)=C(c2ccc(Cl)cc2)C1` [EXAMPLE 402, Trans-4-(4-{[2-(4-chlorophenyl)-4,4-dimethylcyclohex-1-en-1-yl]methyl}piperazin-1-yl)-2-(1H-indazol-4-yloxy)-N-({4-[(4-morpholin-4-ylcyclohexyl)amino]-3-nitrophenyl}sulfonyl)benzamide], the “Binding selectivity ratio” value came out at 137.4.

Regarding `CC1(C)CCC(CN2CCN(c3ccc(C(=O)NS(=O)(=O)c4cnc(OCC5(F)CCOCC5)c(Cl)c4)c(Oc4cccc5[nH]ncc45)c3)CC2)=C(c2ccc(Cl)cc2)C1` [EXAMPLE 404, N-({5-chloro-6-[(4-fluorotetrahydro-2H-pyran-4-yl)methoxy]pyridin-3-yl}sulfonyl)-4-(4-{[2-(4-chlorophenyl)-4,4-dimethylcyclohex-1-en-1-yl]methyl}piperazin-1-yl)-2-(1H-indazol-4-yloxy)benzamide], the “Binding selectivity ratio” value is 2423.

In the case of `CC1(C)CCC(CN2CCN(c3ccc(C(=O)NS(=O)(=O)c4cnc(OCC5(F)CCOCC5)c(Cl)c4)c(Oc4cccc5[nH]ccc45)c3)CC2)=C(c2ccc(Cl)cc2)C1` [EXAMPLE 405, N-({5-chloro-6-[(4-fluorotetrahydro-2H-pyran-4-yl)methoxy]pyridin-3-yl}sulfonyl)-4-(4-{[2-(4-chlorophenyl)-4,4-dimethylcyclohex-1-en-1-yl]methyl}piperazin-1-yl)-2-(1H-indol-4-yloxy)benzamide], the “Binding selectivity ratio” value was determined as 1395.

`CC1(C)CCC(CN2CCN(c3ccc(C(=O)NS(=O)(=O)c4ccc(N[C@@H]5CCN(CC(F)F)C5)c([N+](=O)[O-])c4)c(Oc4cccc5[nH]cnc45)c3)CC2)=C(c2ccc(Cl)cc2)C1` [EXAMPLE 407, 2-(1H-benzimidazol-4-yloxy)-4-(4-{[2-(4-chlorophenyl)-4,4-dimethylcyclohex-1-en-1-yl]methyl}piperazin-1-yl)-N-[(4-{[(3R)-1-(2,2-difluoroethyl)pyrrolidin-3-yl]amino}-3-nitrophenyl)sulfonyl]benzamide]: the “Binding selectivity ratio” value came to 4931.

Take `CC1(C)CCC(CN2CCN(c3ccc(C(=O)NS(=O)(=O)c4ccc(NCC5(F)CCOCC5)c([N+](=O)[O-])c4)c(Oc4cccc5[nH]ncc45)c3)CC2)=C(c2ccc(Cl)cc2)C1` [EXAMPLE 409, 4-(4-{[2-(4-chlorophenyl)-4,4-dimethylcyclohex-1-en-1-yl]methyl}piperazin-1-yl)-N-[(4-{[(4-fluorotetrahydro-2H-pyran-4-yl)methyl]amino}-3-nitrophenyl)sulfonyl]-2-(1H-indazol-4-yloxy)benzamide]: the “Binding selectivity ratio” value was found to be 1748.5.
